In the supplement of paper PMC11451515:

Tested on: SEM cells
Experiment: cell viability relative to DMSO control; higher = less cytotoxic
Conditions: 48 h
Outline: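 Leukemia cells (NOMO1 or SEM, 500 cells/well; P12-Ichikawa, 1000 cells/well) were seeded in 5 μl in 1536-well plates after at least four passages of adaptation to each medium. They received library compounds in DMSO by pin dosing, 11 threefold points from 47 μM to 0.79 nM. Luminescence with CellTiter-Glo One was read after 48 h at 37°C. Viability is stated per plate relative to DMSO wells, with cell-free wells as background.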

[1] = HPLM + 10% dialyzed FBS, 0.000781 µM
[2] = HPLM + 10% dialyzed FBS, 0.00234 µM
[3] = HPLM + 10% dialyzed FBS, 0.00702 µM
[4] = HPLM + 10% dialyzed FBS, 0.0211 µM
[5] = HPLM + 10% dialyzed FBS, 0.0632 µM
[6] = HPLM + 10% dialyzed FBS, 0.19 µM
[7] = HPLM + 10% dialyzed FBS, 0.569 µM
[8] = HPLM + 10% dialyzed FBS, 1.71 µM
[9] = HPLM + 10% dialyzed FBS, 5.12 µM
[10] = HPLM + 10% dialyzed FBS, 15.4 µM
[11] = HPLM + 10% dialyzed FBS, 46.1 µM
[12] = RPMI 5 mM glucose + 10% FBS, 0.000781 µM
[13] = RPMI 5 mM glucose + 10% FBS, 0.00234 µM
[14] = RPMI 5 mM glucose + 10% FBS, 0.00702 µM
[15] = RPMI 5 mM glucose + 10% FBS, 0.0211 µM
[16] = RPMI 5 mM glucose + 10% FBS, 0.0632 µM
[17] = RPMI 5 mM glucose + 10% FBS, 0.19 µM
[18] = RPMI 5 mM glucose + 10% FBS, 0.569 µM
[19] = RPMI 5 mM glucose + 10% FBS, 1.71 µM
[20] = RPMI 5 mM glucose + 10% FBS, 5.12 µM
[21] = RPMI 5 mM glucose + 10% FBS, 15.4 µM
[22] = RPMI 5 mM glucose + 10% FBS, 46.1 µM
[23] = RPMI 5 mM glucose + 10% dialyzed FBS, 0.000781 µM
[24] = RPMI 5 mM glucose + 10% dialyzed FBS, 0.00234 µM
[25] = RPMI 5 mM glucose + 10% dialyzed FBS, 0.00702 µM
[26] = RPMI 5 mM glucose + 10% dialyzed FBS, 0.0211 µM
[27] = RPMI 5 mM glucose + 10% dialyzed FBS, 0.0632 µM
[28] = RPMI 5 mM glucose + 10% dialyzed FBS, 0.19 µM
[29] = RPMI 5 mM glucose + 10% dialyzed FBS, 0.569 µM
[30] = RPMI 5 mM glucose + 10% dialyzed FBS, 1.71 µM
[31] = RPMI 5 mM glucose + 10% dialyzed FBS, 5.12 µM
[32] = RPMI 5 mM glucose + 10% dialyzed FBS, 15.4 µM
[33] = RPMI 5 mM glucose + 10% dialyzed FBS, 46.1 µM

SMILES	cell viability [1]	cell viability [2]	cell viability [3]	cell viability [4]	cell viability [5]	cell viability [6]	cell viability [7]	cell viability [8]	cell viability [9]	cell viability [10]	cell viability [11]	cell viability [12]	cell viability [13]	cell viability [14]	cell viability [15]	cell viability [16]	cell viability [17]	cell viability [18]	cell viability [19]	cell viability [20]	cell viability [21]	cell viability [22]	cell viability [23]	cell viability [24]	cell viability [25]	cell viability [26]	cell viability [27]	cell viability [28]	cell viability [29]	cell viability [30]	cell viability [31]	cell viability [32]	cell viability [33]
C[N]1C=NC=C1[C@@](N)(C2=CC=C(Cl)C=C2)C3=CC=C4N(C)C(=O)\C=C(\C5=CC=CC(=C5)Cl)C4=C3	112%	126%	111%	103%	65.5%	53.1%	50.7%	48.5%	49.2%	39.8%	28.6%	105%	116%	109%	101%	72.2%	43.9%	51.7%	43.7%	40.6%	33.9%	13.6%	105%	102%	97.9%	108%	98.5%	71%	65.9%	62.8%	55%	49.7%	22.3%
CN(C)Cc1ccc(-c2nc3cccc4c3n2CCNC4=O)cc1	100%	105%	93.5%	114%	114%	118%	122%	121%	127%	119%	113%	103%	106%	119%	117%	109%	127%	94.7%	120%	129%	109%	115%	91.4%	96.3%	107%	94.7%	97.8%	107%	93%	98.7%	105%	110%	98.3%
CN(C)CCOC(c1ccccc1)c1ccccc1	90.4%	90.5%	108%	110%	106%	98.1%	97.1%	94.3%	91.8%	92.9%	90.3%	107%	107%	113%	105%	111%	114%	104%	117%	94.1%	116%	97.5%	104%	96.8%	115%	121%	119%	114%	122%	102%	94.8%	94.4%	92%
Cc1cc(Nc2ncc(Cl)c(Nc3ccccc3[S+](=O)([O-])C(C)C)n2)c(OC(C)C)cc1C1CCNCC1	115%	114%	119%	123%	120%	109%	96%	88.1%	69%	48.3%	5.59%	112%	114%	103%	118%	119%	101%	94.2%	101%	65.3%	50.5%	5.71%	125%	121%	104%	146%	142%	121%	110%	100%	80.9%	52.2%	6.92%
Clc1cccc(-c2nnnn2Cc2cccnc2)c1Cl	79.7%	81.9%	67%	92.9%	101%	103%	92.6%	57.7%	49.4%	50.2%	45%	101%	92%	70.1%	102%	95.3%	95%	74.6%	46.4%	40.4%	42%	35.9%	87.5%	85.7%	75%	93.4%	91.7%	99.4%	102%	62%	56%	58.4%	46.6%
COC1=CC=C2Nc3cc(Cl)ccc3C(N=C3C=C(CN4CCCC4)C(=O)C(CN4CCCC4)=C3)=C2N1	90.6%	113%	103%	105%	107%	101%	106%	111%	117%	61.5%	7.01%	107%	112%	120%	110%	115%	110%	121%	113%	121%	79%	50.3%	83.1%	108%	108%	102%	102%	115%	115%	80.4%	105%	56.4%	24%
Cc1ccc(C(C)(O)c2nc3ccccc3s2)c(C)c1 (stereo unspecified)	75.7%	95.1%	106%	82.9%	108%	114%	6.4%	76.6%	94.2%	62.4%	63.5%	91.7%	110%	94.2%	102%	107%	123%	7.03%	70.7%	102%	61.2%	63.2%	77.1%	112%	93.7%	114%	91.1%	115%	8%	69.7%	97.4%	56.5%	56.6%
